In patent US12503436B2, “Compounds and compositions for treating conditions associated with STING activity” (NOVARTIS PHARMA AG, priority 2021, dated 2025):

What follows are molecules tested against STING (Homo sapiens, UniProt Q86WV6, G230A/H232R/R293Q/R71H) (assay: STING reporter assay in THP1-Dual KO-IFNAR2 cells (2′3′cGAMP stimulation, luciferase reporter)). Details: 15 μM 2′3′cGAMP stimulation, 24 h, read-out: Pharmaron, THP1_IFNAR2 STING 24 h Luci Normalized: GeoMean EC50.
Assay type: cell-based
Outline: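 EC50 from secreted luciferase (QUANTI-Luc Plus luminescence of supernatant) after 24 h at 37 °C, 5% CO2. Cells: THP1-Dual KO-IFNAR2, treated with compound (0.0017-100 μM final) plus lipofected 2′3′cGAMP at 15 μM final.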

Chain of STING (Q86WV6 whole entry R71H/G230A/H232R/R293Q): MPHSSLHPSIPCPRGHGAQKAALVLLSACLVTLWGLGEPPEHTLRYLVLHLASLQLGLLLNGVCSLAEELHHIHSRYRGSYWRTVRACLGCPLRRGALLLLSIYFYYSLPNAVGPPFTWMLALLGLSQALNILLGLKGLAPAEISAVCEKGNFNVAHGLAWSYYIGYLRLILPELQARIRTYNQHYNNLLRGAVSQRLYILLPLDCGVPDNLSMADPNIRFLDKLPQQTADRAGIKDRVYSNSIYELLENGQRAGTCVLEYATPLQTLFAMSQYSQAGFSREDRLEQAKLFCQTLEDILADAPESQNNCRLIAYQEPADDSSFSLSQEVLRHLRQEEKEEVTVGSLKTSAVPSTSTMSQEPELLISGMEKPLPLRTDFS

SMILES	EC50 [µM]
O=C(Nc1c[nH]c2ccc(CCOc3ccc(C(F)(F)F)cc3)cc12)[C@H]1C[C@@H](O)C1 [Compound 179, (1S,3S)-3-hydroxy-N-(5-{2-[4-(trifluoromethyl)phenoxy]ethyl}-1H-indol-3-yl)cyclobutane-1-carboxamide]	0.2 to 1
O=C(Nc1c[nH]c2ccc(OCCc3ccc(C(F)(F)F)cc3)cc12)C1CC(O)C1 (stereo not drawn) [Compound 180, 3-hydroxy-N-(5-(4-(trifluoromethyl)phenethoxy)-1H-indol-3-yl)cyclobutane-1-carboxamide]	0.2 to 1
O=C(Nc1c[nH]c2ccc(OCCc3ccc(C(F)(F)F)cc3)cc12)C1CC1(F)F (stereo not drawn) [Compound 181, 2,2-difluoro-N-(5-(4-(trifluoromethyl)phenethoxy)-1H-indol-3-yl)cyclopropane-1-carboxamide]	0.2 to 1
CC(=O)Nc1c[nH]c2ccc(CCOc3cnc(C(F)(F)F)nc3)cc12 [Compound 184, N-(5-(2-((2-(trifluoromethyl)pyrimidin-5-yl)oxy)ethyl)-1H-indol-3-yl)acetamide]	5 to 100
O=C(Nc1c[nH]c2ccc(OCCc3ccc(C(F)(F)F)cc3)cc12)C1(C(F)(F)F)CC1 [Compound 185, 1-(trifluoromethyl)-N-(5-(4-(trifluoromethyl)phenethoxy)-1H-indol-3-yl)cyclopropane-1-carboxamide]	0.2 to 1
CC1(C(=O)Nc2c[nH]c3ccc(OCCc4ccc(C(F)(F)F)cc4)cc23)CCOC1 (stereo not drawn) [Compound 189, 3-methyl-N-(5-(4-(trifluoromethyl)phenethoxy)-1H-indol-3-yl)tetrahydrofuran-3-carboxamide]	0.2 to 1

Continued, values first:

EC50 [µM]	SMILES
0.2 to 1	O=C(Nc1c[nH]c2ccc(OCC[C@@H]3C[C@@H]4CN(CC(F)(F)F)C[C@@H]4C3)cc12)C1CC1 [Compound 182, N-(5-(2-((3aR,5r,6aS)-2-(2,2,2-trifluoroethyl)octahydrocyclopenta[c]pyrrol-5-yl)ethoxy)-1H-indol-3-yl)cyclopropanecarboxamide]
0.2 to 1	O=C(Nc1c[nH]c2ccc(OCCc3cnc(N4CCC(F)(F)CC4)c(F)c3)cc12)C1CC1 [Compound 183, N-(5-(2-(6-(4,4-difluoropiperidin-1-yl)-5-fluoropyridin-3-yl)ethoxy)-1H-indol-3-yl)cyclopropanecarboxamide]
0.2 to 1	CC(C)(C)C(=O)Nc1c[nH]c2ccc(OCCc3ccc(C(F)(F)F)cc3)cc12 [Compound 186, N-(5-(4-(trifluoromethyl)phenethoxy)-1H-indol-3-yl)pivalamide]
0.2 to 1	N#CC1CCC1C(=O)Nc1c[nH]c2ccc(OCCc3ccc(C(F)(F)F)cc3)cc12 (stereo not drawn) [Compound 187, 2-cyano-N-(5-(4-(trifluoromethyl)phenethoxy)-1H-indol-3-yl)cyclobutane-1-carboxamide]
0.2 to 1	N#C[C@@H]1C[C@@H]1C(=O)Nc1c[nH]c2ccc(OCCc3ccc(C(F)(F)F)cc3)cc12 [Compound 188, (1S,2R)-2-cyano-N-(5-(4-(trifluoromethyl)phenethoxy)-1H-indol-3-yl)cyclopropane-1-carboxamide]
0.2 to 1	O=C(Nc1c[nH]c2ccc(OCCc3ccc(C(F)(F)F)cc3)cc12)[C@H]1C[C@@H](O)C1 [Compound 190, (1S,3S)-3-hydroxy-N-(5-(4-(trifluoromethyl)phenethoxy)-1H-indol-3-yl)cyclobutanecarboxamide]
0.2 to 1	CC1(C(=O)Nc2c[nH]c3ccc(OCCc4ccc(C(F)(F)F)cc4)cc23)CCCO1 (stereo not drawn) [Compound 191, 2-methyl-N-(5-(4-(trifluoromethyl)phenethoxy)-1H-indol-3-yl)tetrahydrofuran-2-carboxamide]
0.04 to 0.2	CC1(C)CC1C(=O)Nc1c[nH]c2ccc(OCCc3ccc(C(F)(F)F)cc3)cc12 (stereo not drawn) [Compound 192, 2,2-dimethyl-N-(5-(4-(trifluoromethyl)phenethoxy)-1H-indol-3-yl)cyclopropane-1-carboxamide]
0.2 to 1	N#CC1(C(=O)Nc2c[nH]c3ccc(OCCc4ccc(C(F)(F)F)cc4)cc23)CC1 [Compound 193, 1-cyano-N-(5-(4-(trifluoromethyl)phenethoxy)-1H-indol-3-yl)cyclopropane-1-carboxamide]
